Assay: gradient 5% acetonitrile 3 min, to 50% in 2 min, to 85% in 15 min, held 3 min, 100 µL/min
Conditions: column: Zorbax Extend-C18 2.1 x 50 mm; eluents: water / acetonitrile, 0.1% formic acid
Summary of the method: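 Pure standards were analyzed in mixtures of ~100 molecules using HPLC coupled to a quadrupole time-of-flight mass spectrometer, in both positive and negative ionization mode. Separation used a Zorbax Extend-C18 column (2.1 × 50 mm, 1.8 μm) at 100 μL/min, with water and acetonitrile each containing 0.1% formic acid. Dead and dwell volumes were 40 μL and 900 μL, and data were collected over 3 months. Retention time was read from computationally picked adduct peaks, each inspected manually.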

| SMILES | RP-LC retention time |
| --- | --- |
| O=C(Nc1cccc(Cl)c1)N1CCC(n2c(C(F)(F)F)nc3cccnc32)CC1 | 961 s |
| CS(=O)(=O)N1CCCCC1C(=O)Nc1nnc(-c2ccco2)o1 (stereo not given) | 641 s |
| COc1ccc(-c2csc(NC(=O)CS(=O)(=O)c3ccc(Cl)cc3)n2)c(OC)c1 | 1020 s |
| O=C(Cc1cccs1)Nc1nnc(SCc2ccc([N+](=O)[O-])cc2)s1 | 861 s |
| CN1CC2(CCN(C(=O)NC3CCCCC3)CC2)CC1C(=O)N1CCOCC1 (stereo not given) | 595 s |
| CC1CCCN(S(=O)(=O)c2cc(C(=O)NCCC3=CCCCC3)n(C)c2)C1 (stereo not given) | 1140 s |
| Cc1ccccc1-c1noc(Cc2nnc(-c3cc(F)cc(F)c3)o2)n1 | 1090 s |
| Cc1cc2n(n1)CCC(=O)N2CCCC(=O)NCCCN1CCCCCC1 | 570 s |
| CCC(=O)N(C1CCOCC1)C1CCN(Cc2ccc(C)cc2C)CC1 | 636 s |
| Nc1ncnc2c1cnn2C1CCCCC1 | 672 s |
| COCCc1noc(C2CN(C(=O)c3ocnc3C)C2)n1 | 595 s |
| CCN(CC)CCNC(=O)Cc1noc2ccc(C)cc12 | 604 s |
| Cc1ccc(NC(=O)C2CCc3nc(N4CCOCC4)ncc3C2)cc1F (stereo not given) | 735 s |
| CS(=O)(=O)NCC1CCC(C(=O)Nc2cccc3nsnc23)CC1 (stereo not given) | 700 s |
| CCOc1ccc2ncc(C#N)c(Nc3cc(OC)c(OC)c(OC)c3)c2c1 | 607 s |
| CCCCN1CCC(CCC(=O)c2cc(Cl)c(N)cc2OC)CC1 | 726 s |
| O=C(Nc1ccc(-c2nc3ccccc3[nH]2)cc1)c1cccs1 | 579 s |
| CCc1ccc(OCC(=O)Nc2nc(-c3ccc(F)cc3F)cs2)cc1 | 1260 s |
| COc1ccc(-c2cc3n(n2)CCCN(C(=O)c2cnccn2)C3)cc1 | 695 s |
| CNC(=O)c1nc(C(C)(C)NC(=O)c2ccnn2C)nc2c1OCO2 | 603 s |

| SMILES | RP-LC retention time |
| --- | --- |
| CC(C)(C)NC(=O)N1CCC(CNC(=O)C2CCN(S(C)(=O)=O)CC2)CC1 | 599 s |
| CCCC(NC(=O)c1ccncc1)C(=O)Nc1nc2ccccc2[nH]1 (stereo not given) | 602 s |
| O=C(CCC1CCCN(S(=O)(=O)c2ccc(F)cc2)C1)NC1CC1 (stereo not given) | 764 s |
| Cc1ccc(NC(=O)CCNc2cnc3cnccn23)cc1F | 578 s |
| O=C(c1ccco1)N1N=C(c2ccco2)CC1c1ccc2nccnc2c1 (stereo not given) | 718 s |
| Cc1ccc(CNC(=O)c2ccc(-c3cccs3)nc2)o1 | 869 s |
| CC(=O)Nc1ccc(-n2cnc(C(=O)N3CCN(C4CCCCC4)CC3)c2)nc1 | 566 s |
| O=C(NCCC1=CCCCC1)c1nc(-c2ccnc(N3CCCC3)c2)no1 | 747 s |
| O=C(Nc1cccc(Cl)c1)N1CCc2nc[nH]c2C1 | 597 s |
| O=C1COc2ccc(S(=O)(=O)N3CCC(C(=O)Nc4ccc5c(c4)OCO5)CC3)cc2N1 | 715 s |
| Cc1nn(-c2ccc(Cl)cc2)c(C)c1S(=O)(=O)N1CCC(C(=O)NCC2CCCO2)CC1 (stereo not given) | 843 s |
| O=C(NCC1(c2ccc(F)cc2)CC1)c1ccsc1 | 821 s |
| COc1ccc(N2CCN(C(=O)c3ccc(-c4cccs4)nc3)CC2)cc1 | 852 s |
| CN(C)CCNC(=O)c1ccc(CS(=O)c2ccc(Br)cc2)o1 (stereo not given) | 590 s |
| CCNC(=O)Nc1ccc(OCC(=O)NC(C)c2ccc(OC)c(OC)c2)nc1 (stereo not given) | 644 s |
| COc1ccc(OCC(O)CN2CCN(c3ccc(Cl)cc3)CC2)cc1 (stereo not given) | 795 s |
| O=C(CC1CCCC1)NCCC1CCN(C(=O)Nc2cc(F)ccc2F)CC1 | 847 s |
| Fc1ccc(-c2nc(-c3ccc4nncn4c3)no2)cc1F | 822 s |
| Brc1cccc(-c2noc(-c3nc(-c4ccncc4)no3)n2)c1 | 1150 s |

Second part, the molecule after the results:

| RP-LC retention time | SMILES |
| --- | --- |
| 686 s | CC(C)CN(Cc1ccccc1)Cc1cc(=O)n2cc(Cl)ccc2n1 |
| 1060 s | CC(C)N(Cc1ccccc1)C(=O)CN1C(=O)CCc2cc(S(=O)(=O)N3CCCCC3C)ccc21 (stereo not given) |
| 556 s | Cc1cc(N2CCN(C)CC2)nc2ccc(NC(=O)CCC(=O)NCCC(C)C)cc12 |
| 1120 s | Cc1ccsc1C(=O)N1CCN(c2ccc(-c3nc(C)c(C)s3)cn2)CC1 |
| 573 s | CN1CCc2cc(C(CNS(=O)(=O)c3ccccc3F)N3CCCC3)ccc21 (stereo not given) |
| 572 s | CC(NC(=O)c1ccc2nc(-c3ccccc3)cn2c1)c1ccccn1 (stereo not given) |
| 1070 s | CC(C)Oc1ccc(-c2noc(CN3N=NC4C(=O)N(c5ccc(F)cc5)C(=O)C43)n2)cc1 (stereo not given) |
| 753 s | CCCC(NC(=O)Cc1ccc(Cl)cc1)C(=O)Nc1nc2ccccc2[nH]1 (stereo not given) |
| 783 s | Cc1cc(NS(=O)(=O)c2cc(-c3[nH]ncc3C(=O)N3CCCCC3)oc2C)ccc1F |
| 1270 s | Cc1cccc(-c2nnc(-c3nc(N4CCCCC4C)c4ccccc4n3)o2)c1 (stereo not given) |
| 629 s | COC(=O)CNC(=O)Nc1ccc2nc(-c3ccccc3)cc(OC)c2c1 |
| 819 s | O=C(Cc1ccccc1Cl)N1CCN(c2cc(-c3cccs3)[nH]n2)CC1 |
| 665 s | Cc1ccc2c(=O)c3c([nH]c2c1C)CCN(CC(=O)Nc1ccc(F)c(Cl)c1)C3 |
| 617 s | COc1ccc(Cl)cc1N1CC(c2nc3ccccc3n2CCN2CCOCC2)CC1=O (stereo not given) |
| 947 s | Cc1nc(-c2cn(C(C)C)c3ncccc23)sc1C(=O)Nc1ccc(F)cc1 |
| 719 s | O=c1c2cc(-c3ccc(F)cc3)nn2ccn1Cc1noc(CN2CCCCCCC2)n1 |
| 670 s | Cc1nn(-c2ccc(C(=O)NCCCN3CCCC3=O)cc2)c2c1C(=O)CC(C)(C)C2 |
| 709 s | CCC(=O)N1CCCC1c1nc2ccccc2n1CC(=O)N(c1ccccc1)C(C)C (stereo not given) |
| 797 s | O=C(CN1C(=O)CCS(=O)(=O)c2ccccc21)Nc1ccc(Cl)cc1 |
| 896 s | Cc1ccc(CN2N=C(C(=O)N3CCOCC3)S(=O)(=O)c3ccc(Cl)cc32)cc1 |
| 975 s | CC1=NS(=O)(=O)N(C)C=C1C(=O)OCc1noc(-c2ccccc2Cl)n1 |
| 1220 s | Nc1ccccc1-n1nc2ccc3ccccc3c2n1 |
| 861 s | CCOc1ccccc1C(=O)N1CCC2(CC1)NC(=O)c1cc(C)ccc1N2CC |
| 598 s | CC(C)CCn1c(CCCC(=O)N2CCC(C(N)=O)CC2)nc2cccnc21 |
| 590 s | CCCn1c(=O)c2cc(C(=O)N3CCN(Cc4ccccc4)CC3)nn2c2ccccc21 |
| 736 s | Cc1ccn2c(NC(=O)c3cccc(C(F)(F)F)c3)c(-c3ccccc3)nc2c1 |

| RP-LC retention time | SMILES |
| --- | --- |
| 745 s | CN1c2ccc(F)cc2C(=O)NC12CCN(C(=O)c1ccccc1F)CC2 |
| 841 s | CCOC(=O)c1nc(Nc2ccc(C(=O)OC)cc2)c2ccccc2n1 |
| 737 s | CCN1c2ccccc2C(=O)NC12CCN(C(=O)Nc1ccc3c(c1)OCO3)CC2 |
| 541 s | CC(=O)N1CCN(c2nc3c(s2)CC(C(=O)Nc2ccccc2)CC3)CC1 (stereo not given) |
| 1060 s | Cc1cc(C(=O)N2CC(Oc3ccc(-c4nc(-c5ccccc5)no4)cc3)C2)n(C)n1 |
| 766 s | CCc1onc(C)c1C1CCCN1C(=O)NCc1ccc(F)cc1 (stereo not given) |
| 922 s | Cc1cc(C)cc(Oc2nccn3c(=O)n(CC(=O)Nc4ccccc4)nc23)c1 |
| 863 s | COc1ccc(N2CC(c3nc(-c4ccccc4F)no3)CC2=O)c(OC)c1 (stereo not given) |
| 548 s | Cc1cc2[nH]c(=O)[nH]c2cc1S(=O)(=O)N1CCN(Cc2ccccc2)CC1 |
| 861 s | O=C(CCc1ccccc1)N1CCOc2ccccc2C1 |
| 818 s | COc1ccc(CNC(=O)Cn2c(C)cc(-c3nnc(C4CCC4)o3)c2C)cc1 |
| 589 s | CCc1nc2cccnc2n1-c1ccc(C(=O)N(C)C)cc1 |
| 1320 s | CCOc1ccccc1NC(=O)c1c(O)c2cccnc2n(-c2cccc(F)c2)c1=O |
| 644 s | Cc1cc(=O)n(CC(=O)Nc2ccc(F)cc2C)c(N2CCOCC2)n1 |
| 1360 s | Cc1cccc(Cn2cccc2-c2nc(-c3ccc4c(c3)OCO4)no2)c1 |
| 1080 s | CCn1nccc1-c1cccc(-c2noc(C3CC(=O)N(c4ccc(C)c(C)c4)C3)n2)c1 (stereo not given) |
| 622 s | CC(C)n1c(CC2CCN(C(=O)c3ccccc3Cl)C2)nc2cccnc21 (stereo not given) |
| 640 s | COc1cccc(CNC(=O)Cn2nc3cc(-c4ccncc4)nc(C)n3c2=O)c1 |
| 585 s | Cc1nc(NC(=O)Cn2nc(-n3cccn3)ccc2=O)sc1C(=O)N(C)C |
| 592 s | COc1ccc(C2=NC3(CCN(C(C)C)CC3)NC(c3ccccc3O)C2)cc1 (stereo not given) |
| 615 s | CS(=O)(=O)N(Cc1cccnc1)C1CN(C(=O)c2ccc3ccccc3n2)C1 |
| 835 s | CCc1noc2nc(C)n(CC(=O)NCC(C)c3ccccc3)c(=O)c12 (stereo not given) |
| 599 s | O=C(NCCN1CCOCC1)c1c2c(nc3ccccc13)C(=O)N(C1CCCCC1)C2 |
| 798 s | CCCn1cc(-c2nc(-c3cc(OC)c(OC)c(OC)c3)no2)c(=O)c2ccccc21 |
| 657 s | Cn1c(=O)c2c(nc3n2CC(=O)N(CCc2ccccc2)C3)n(C)c1=O |

Reference: the METLIN SMRT retention time set (Domingo-Almenara et al. 2019)
